Experimental data published in patent US20220257592A1, “METHODS OF TREATING CANCER” (HOFFMANN-LA ROCHE INC., priority 2019, published 2022).

Assay: Clinical trial safety, ALKA, STARTRK-1, STARTRK-2, STARTRK-NG (interim, N=355)
[1] = may be underestimated, 4.5% had no post-treatment liver function tests
[2] = patients with at least one post-baseline ECG assessment
[3] = worsening from baseline, NCI CTCAE v5.0

SMILES: CN1CCN(c2ccc(C(=O)Nc3n[nH]c4ccc(Cc5cc(F)cc(F)c5)cc34)c(NC3CCOCC3)c2)CC1 [Entrectinib, N-[5-(3,5-difluorobenzyl)-1H-indazol-3-yl]-4-(4-methyl-piperazin-1-yl)-2-(tetrahydro-pyran-4-ylamino)-benzamide]
- Cognitive impairment: mental status changes (human, in vivo): 2%
- Discontinuation due to hyperuricemia (human, in vivo): No patients discontinued
- Dose interruption due to anemia (human, in vivo): 3.1%
- Dose interruption due to cognitive disorder (human, in vivo): 2%
- Dose interruption due to diarrhea (human, in vivo): 2.8%
- Dose interruption due to dizziness (human, in vivo): 2.5%
- Dose interruption due to dyspnea (human, in vivo): 2.3%
- Dose interruption due to fatigue (human, in vivo): 3.7%
- Dose interruption due to increased blood creatinine (human, in vivo): 4%
- Dose interruption due to nausea (human, in vivo): 2.3%
- Dose interruption due to neutropenia (human, in vivo): 2%
- Dose interruption due to pneumonia (human, in vivo): 2.3%
- Dose interruption due to pyrexia (human, in vivo): 2.8%
- Dose interruptions due to adverse reactions (human, in vivo): 46%
- Dose reduction due to anemia (human, in vivo): 1.7%
- Dose reduction due to dizziness (human, in vivo): 3.9%
- Dose reduction due to fatigue (human, in vivo): 2.3%
- Dose reduction due to increased blood creatinine (human, in vivo): 3.1%
- Dose reduction due to increased weight (human, in vivo): 1.4%
- Dose reductions due to adverse reactions (human, in vivo): 29%
- Entrectinib discontinued due to increased AST or ALT (human, in vivo): 0.8%
- Grade 3 cognitive adverse reactions (human, in vivo): 4.5%
- Grade 3 mood disorders (human, in vivo): 0.6%
- Grade 3 or 4 adverse reactions (human, in vivo): 60%
- Grade 3 or 4 cognitive disorders (human, in vivo): 4.5%
- Grade 3 or 4 diarrhea (human, in vivo): 2%
- Grade 3 or 4 dyspnea (human, in vivo): 6%
- Grade 3 or 4 fatigue/asthenia (human, in vivo): 5%
- Grade 3 or 4 hypotension (human, in vivo): 2.8%
- Grade 3 or 4 hypoxia (human, in vivo): 3.4%
- Grade 3 or 4 increased weight (human, in vivo): 7%
- Grade 3 or 4 lung infection (human, in vivo): 5%
- Grade 3 or 4 pleural effusion (human, in vivo): 3.1%
- Grade 3 or 4 pulmonary embolism (human, in vivo): 3.4%
- Grade 3 or 4 syncope (human, in vivo): 2.5%
- Grade 3 or 4 urinary tract infection (human, in vivo): 2.5%
- Grade 3 sleep disturbances (human, in vivo): 0.6%
- Hyperuricemia resolved following urate-lowering medication without interruption or dose reduction (human, in vivo): 73%
- Incidence of CNS adverse reactions in patients with and without CNS metastases (human, in vivo): similar
- Mood disorders: agitation (human, in vivo): 2%
- Mood disorders: anxiety (human, in vivo): 4.8%
- Mood disorders: depression (human, in vivo): 2.8%
- Most common adverse reactions (≥20%) (human, in vivo): fatigue, constipation, dysgeusia, edema, dizziness, diarrhea, nausea, dysesthesia, dyspnea, myalgia, cognitive impairment, increased weight, cough, vomiting, pyrexia, arthralgia and vision disorders
- Myocarditis in the absence of CHF (human, in vivo): 0.3%
- Permanent discontinuation due to an adverse reaction (human, in vivo): 9%
- Permanent discontinuation due to cardio-respiratory arrest (human, in vivo): < 1%
- Permanent discontinuation due to dyspnea (human, in vivo): < 1%
- Permanent discontinuation due to fatigue (human, in vivo): < 1%
- Permanent discontinuation due to pneumonia (human, in vivo): < 1%
- Serious adverse reaction: dyspnea (human, in vivo): 3.7%
- Serious adverse reaction: pleural effusion (human, in vivo): 3.4%
- Serious adverse reaction: pneumonia (human, in vivo): 3.9%
- Serious adverse reaction: pulmonary embolism (human, in vivo): 2.3%
- Serious adverse reaction: pyrexia (human, in vivo): 2%
- Serious adverse reaction: respiratory failure (human, in vivo): 2%
- Serious adverse reaction: sepsis (human, in vivo): 2.5%
- Serious adverse reactions (human, in vivo): 39%
- Sleep disturbances: hypersomnia (human, in vivo): 1.1%
- Sleep disturbances: insomnia (human, in vivo): 7%
- Sleep disturbances: sleep disorder (human, in vivo): 0.3%
- Sleep disturbances: somnolence (human, in vivo): 7%
- Vision changes, Grade 1 (human, in vivo): 82%
- Vision changes, Grade 2 (human, in vivo): 14%
- Vision changes, Grade 3 (human, in vivo): 0.8%
- Vision disorders: blurred vision (human, in vivo): 8.7%
- Vision disorders: cataract (human, in vivo): 1.1%
- Vision disorders: diplopia (human, in vivo): 3.1%
- Vision disorders: photophobia (human, in vivo): 5.1%
- Vision disorders: photopsia (human, in vivo): 1.3%
- Vision disorders: visual impairment (human, in vivo): 2%
- Vision disorders: vitreous floaters (human, in vivo): 1.1%
- Grade 4 hyperuricemia (including one patient who died due to tumor lysis syndrome): 1.7%
- Grade 3-4 increased ALT [1]: 2.8%
- Grade 3-4 increased AST [1]: 2.5%
- Cognitive impairment symptoms occurred within 3 months of starting entrectinib (of the 96 patients with cognitive impairment): 77%
- QTcF interval >500 ms [2]: 0.6%
- QTcF interval prolongation of >60 ms after starting entrectinib [2]: 3.1%
- Mood disorders, median time to onset (range: 1 day to 9 months): 1 month
- Increased ALT, median time to onset (range: 1 day to 9.2 months): 2 weeks
- Increased AST, median time to onset (range: 1 day to 29.5 months): 2 weeks
- Completed suicide (reported 11 days after treatment had ended): One
- Grade 4 myocarditis after one dose of entrectinib (resolved after discontinuation and high-dose corticosteroids): One
- Increased AST or ALT leading to dose reductions (second value of 'respectively'): 0.8%
- Laboratory: Anemia, All Grades (worsening from baseline): 67%
- Laboratory: Anemia, Grade 3 or 4 (worsening from baseline): 9%
- Laboratory: Hyperkalemia, All Grades (worsening from baseline): 25%
- Laboratory: Hyperkalemia, Grade 3 or 4 (worsening from baseline): 1.5%
- Laboratory: Hypernatremia, All Grades (worsening from baseline): 35%
- Laboratory: Hypernatremia, Grade 3 or 4 (worsening from baseline): 0.9%
- Laboratory: Hyperuricemia, All Grades (worsening from baseline): 52%
- Laboratory: Hyperuricemia, Grade 3 or 4 (worsening from baseline): 10%
- Laboratory: Hypoalbuminemia, All Grades (worsening from baseline): 28%
- Laboratory: Hypoalbuminemia, Grade 3 or 4 (worsening from baseline): 2.9%
- Laboratory: Hypocalcemia, All Grades (worsening from baseline): 34%
- Laboratory: Hypocalcemia, Grade 3 or 4 (worsening from baseline): 1.8%
- Laboratory: Hypophosphatemia, All Grades (worsening from baseline): 30%
- Laboratory: Hypophosphatemia, Grade 3 or 4 (worsening from baseline): 7%
- Laboratory: Increased ALT, All Grades (worsening from baseline): 38%
- Laboratory: Increased ALT, Grade 3 or 4 (worsening from baseline): 2.9%
- Laboratory: Increased AST, All Grades (worsening from baseline): 44%
- Laboratory: Increased AST, Grade 3 or 4 (worsening from baseline): 2.7%
- Laboratory: Increased alkaline phosphatase, All Grades (worsening from baseline): 25%
- Laboratory: Increased alkaline phosphatase, Grade 3 or 4 (worsening from baseline): 0.9%
- Laboratory: Increased amylase, All Grades (worsening from baseline): 26%
- Laboratory: Increased amylase, Grade 3 or 4 (worsening from baseline): 5.4%
- Laboratory: Increased lipase, All Grades (worsening from baseline): 28%
- Laboratory: Increased lipase, Grade 3 or 4 (worsening from baseline): 10%
- Laboratory: Lymphopenia, All Grades (worsening from baseline): 40%
- Laboratory: Lymphopenia, Grade 3 or 4 (worsening from baseline): 12%
- Laboratory: Neutropenia, All Grades (worsening from baseline): 28%
- Laboratory: Neutropenia, Grade 3 or 4 (worsening from baseline): 7%
- Laboratory: Hyperglycemia, Grade 3 or 4 [3]: 3.8%
- Laboratory: Increased creatinine, All Grades [3]: 73%
- Laboratory: Increased creatinine, Grade 3 or 4 [3]: 2.1%
